Results published in patent US6355799B1, “Substituted benzene compounds, process for their preparation, and herbicidal and defoliant compositions containing them” (ISK Americas Incorporated, priority 1997, dated 2002).

Key:
Type in all cases: in vivo
[1] = system: green foxtail (Setaria viridis, SETVI); assay: Post-emerge test, greenhouse herbicide activity screening; conditions: post-emerge, phytotoxicity rating 0-100 at 14 days after application
Method in brief: (§1)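 Fourteen days after spraying, crop and weed injury was graded visually from 0, no effect, to 100, every plant dead. Test substances were dissolved in acetone and applied at 15–1000 g ai/ha with a flat-fan nozzle. Application was either pre-emergence, one day after sowing, or post-emergence at the 2–3 leaf stage.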

[2] = system: johnsongrass (Sorghum halepense, SORHA); assay: as above; conditions: post-emerge, phytotoxicity rating 0-100 at 14 days after application
Method in brief: as §1

[3] = system: lambsquarters (Chenopodium album, CHEAL); assay: as above; conditions: post-emerge, phytotoxicity rating 0-100 at 14 days after application
Method in brief: as §1

[4] = system: sicklepod (Cassia obtusifolia, CASOB); assay: as above; conditions: post-emerge, phytotoxicity rating 0-100 at 14 days after application
Method in brief: as §1

[5] = system: large crabgrass (Digitaria sanguinalis, DIGSA); assay: as above; conditions: post-emerge, phytotoxicity rating 0-100 at 14 days after application
Method in brief: as §1

[6] = system: barnyardgrass (Echinochloa crus-galli, ECHCG); assay: as above; conditions: post-emerge, phytotoxicity rating 0-100 at 14 days after application
Method in brief: as §1

[7] = system: velvetleaf (Abutilon theophrasti, ABUTH); assay: as above; conditions: post-emerge, phytotoxicity rating 0-100 at 14 days after application
Method in brief: as §1

[8] = system: ivyleaf morningglory (Ipomoea hederacea, IPOHE); assay: as above; conditions: post-emerge, phytotoxicity rating 0-100 at 14 days after application
Method in brief: as §1

[9] = system: redroot pigweed (Amaranthus retroflexus, AMARE); assay: as above; conditions: post-emerge, phytotoxicity rating 0-100 at 14 days after application
Method in brief: as §1

[10] = system: green foxtail (Setaria viridis, SETVI); assay: Pre-emerge test, greenhouse herbicide activity screening; conditions: pre-emerge, phytotoxicity rating 0-100 at 14 days after application
Method in brief: (§2)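 Compounds in acetone were track-sprayed at 187 l/ha, 15–1000 g ai/ha, onto sandy loam pots. Pre-emerge seeds were sown one day before spraying, with surface watering afterwards. Post-emerge plants were at the 2–3 leaf stage and sprayed with 0.25% v/v non-ionic surfactant. Injury was rated 0–100 at 14 days.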

[11] = system: lambsquarters (Chenopodium album, CHEAL); assay: as above; conditions: pre-emerge, phytotoxicity rating 0-100 at 14 days after application
Method in brief: as §2

[12] = system: sicklepod (Cassia obtusifolia, CASOB); assay: as above; conditions: pre-emerge, phytotoxicity rating 0-100 at 14 days after application
Method in brief: as §2

[13] = system: large crabgrass (Digitaria sanguinalis, DIGSA); assay: as above; conditions: pre-emerge, phytotoxicity rating 0-100 at 14 days after application
Method in brief: as §2

[14] = system: barnyardgrass (Echinochloa crus-galli, ECHCG); assay: as above; conditions: pre-emerge, phytotoxicity rating 0-100 at 14 days after application
Method in brief: as §2

[15] = system: velvetleaf (Abutilon theophrasti, ABUTH); assay: as above; conditions: pre-emerge, phytotoxicity rating 0-100 at 14 days after application
Method in brief: as §2

[16] = system: ivyleaf morningglory (Ipomoea hederacea, IPOHE); assay: as above; conditions: pre-emerge, phytotoxicity rating 0-100 at 14 days after application
Method in brief: as §2

[17] = system: upland rice (Oryza sp., var. Tebonnet, RICE); assay: Post-emerge test, crop safety; conditions: post-emerge, crop damage rating 0-100 at 14 days after application
Method in brief: as §2

[18] = system: field corn (Zea mays L., var. Dekalb 535, CORN); assay: Post-emerge test, crop safety; conditions: post-emerge, crop damage rating 0-100 at 14 days after application
Method in brief: as §2

[19] = system: upland rice (Oryza sp., var. Tebonnet, RICE); assay: Pre-emerge test, crop safety; conditions: crop damage, pre-emerge, phytotoxicity rating 0-100 at 14 days after application
Method in brief: (§3)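 Plants grown in 10 cm pots of sandy loam mix received acetone-dissolved compounds through a moving flat-fan nozzle. Doses ranged from 15 to 1000 g ai/ha. Pre-emerge pots were seeded one day earlier, post-emerge pots 8–21 days earlier. Fourteen days on, each pot was graded 0–100 for damage.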

[20] = system: field corn (Zea mays L., var. Dekalb 535, CORN); assay: Pre-emerge test, crop safety; conditions: crop damage, pre-emerge, phytotoxicity rating 0-100 at 14 days after application
Method in brief: as §3

[21] = system: redroot pigweed (Amaranthus retroflexus, AMARE); assay: Pre-emerge test, greenhouse herbicide activity screening; conditions: pre-emerge, phytotoxicity rating 0-100 at 14 days after application
Method in brief: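 Sandy loam pots; pre-emerge: sown 1 d pre-spray, surface-watered after, then bottom-watered. Post-emerge: sown 8–21 d before, 2–3 leaf stage, + 0.25% v/v NIS, bottom-watered. Acetone, 187 l/ha track spray, 15–1000 g ai/ha. 0–100 injury score, day 14.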

In the case of Cc1nn(-c2c(Cl)cc(Cl)cc2NC(=O)c2ccc(F)cc2F)c(=O)n1C(F)F [Compound 6-13], the “Post-emerge Herbicidal Activity SETVI” value ([1]; 63 g ai/ha) is reported as 50, the “Post-emerge Herbicidal Activity SETVI” value ([1]; 250 g ai/ha) is reported as 90 and the “Post-emerge Herbicidal Activity SORHA” value ([2]; 63 g ai/ha) is reported as 0. For the same compound, the “Post-emerge Herbicidal Activity SORHA” value ([2]; 250 g ai/ha) was 10, the “Post-emerge Herbicidal Activity CHEAL” value ([3]; 63 g ai/ha) was 85 and the “Post-emerge Herbicidal Activity CHEAL” value ([3]; 250 g ai/ha) was 90. The “Post-emerge Herbicidal Activity CASOB” value ([4]; 63 g ai/ha) was 0, the “Post-emerge Herbicidal Activity CASOB” value ([4]; 250 g ai/ha) was 30 and the “Post-emerge Herbicidal Activity DIGSA” value ([5]; 63 g ai/ha) was 20. The “Post-emerge Herbicidal Activity DIGSA” value ([5]; 250 g ai/ha) was 30, the “Post-emerge Herbicidal Activity ECHCG” value ([6]; 63 g ai/ha) was 0 and the “Post-emerge Herbicidal Activity ECHCG” value ([6]; 250 g ai/ha) was 30. The “Post-emerge Herbicidal Activity ABUTH” value ([7]; 63 g ai/ha) was 100, the “Post-emerge Herbicidal Activity ABUTH” value ([7]; 250 g ai/ha) was 90 and the “Post-emerge Herbicidal Activity IPOHE” value ([8]; 63 g ai/ha) was 50. For the same compound, the “Post-emerge Herbicidal Activity IPOHE” value ([8]; 250 g ai/ha) was 60, the “Post-emerge Herbicidal Activity AMARE” value ([9]; 63 g ai/ha) was 70 and the “Post-emerge Herbicidal Activity AMARE” value ([9]; 250 g ai/ha) was 90. For the same compound, the “Pre-emerge Herbicidal Activity SETVI” value ([10]; rate 63 g ai/ha) was 80, the “Pre-emerge Herbicidal Activity SETVI” value ([10]; rate 250 g ai/ha) was 100 and the “Pre-emerge Herbicidal Activity CHEAL” value ([11]; rate 63 g ai/ha) was 40. The “Pre-emerge Herbicidal Activity CHEAL” value ([11]; rate 250 g ai/ha) was 100, the “Pre-emerge Herbicidal Activity CASOB” value ([12]; rate 63 g ai/ha) was 0 and the “Pre-emerge Herbicidal Activity CASOB” value ([12]; rate 250 g ai/ha) was 0. The “Pre-emerge Herbicidal Activity DIGSA” value ([13]; rate 63 g ai/ha) was 80, the “Pre-emerge Herbicidal Activity DIGSA” value ([13]; rate 250 g ai/ha) was 90 and the “Pre-emerge Herbicidal Activity ECHCG” value ([14]; rate 63 g ai/ha) was 10. For the same compound, the “Pre-emerge Herbicidal Activity ECHCG” value ([14]; rate 250 g ai/ha) was 40, the “Pre-emerge Herbicidal Activity ABUTH” value ([15]; rate 63 g ai/ha) was 10 and the “Pre-emerge Herbicidal Activity ABUTH” value ([15]; rate 250 g ai/ha) was 40. For the same compound, the “Pre-emerge Herbicidal Activity IPOHE” value ([16]; rate 63 g ai/ha) was 0, the “Pre-emerge Herbicidal Activity IPOHE” value ([16]; rate 250 g ai/ha) was 0 and the “Post-emerge Herbicidal Activity RICE” value ([17]; 63 g ai/ha) was 10. The “Post-emerge Herbicidal Activity RICE” value ([17]; 250 g ai/ha) was 30, the “Post-emerge Herbicidal Activity CORN” value ([18]; 63 g ai/ha) was 15 and the “Post-emerge Herbicidal Activity CORN” value ([18]; 250 g ai/ha) was 20. For the same compound, the “Pre-emerge Herbicidal Activity RICE” value ([19]; rate 63 g ai/ha) was 0, the “Pre-emerge Herbicidal Activity RICE” value ([19]; rate 250 g ai/ha) was 10 and the “Pre-emerge Herbicidal Activity CORN” value ([20]; rate 63 g ai/ha) was 0. For the same compound, the “Pre-emerge Herbicidal Activity CORN” value ([20]; rate 250 g ai/ha) was 0, the “Pre-emerge Herbicidal Activity AMARE” value ([21]; rate 63 g ai/ha) was 60 and the “Pre-emerge Herbicidal Activity AMARE” value ([21]; rate 250 g ai/ha) was 100.
